Data published in the NIST ThermoML archive (doi:10.1021/je025606c).

Tests used:
[1] = Liquid; for kinematic viscosity: Capillary tube (Ostwald / Ubbelohde) method; for mass density: 1000 kPa, Vibrating tube method
[2] = molar heat capacity at constant pressure; settings: Liquid

CCCCOCCOCCOCCCC [5,8,11-trioxapentadecane]
Settings	kinematic viscosity [m2/s]	molar heat capacity at constant pressure [J/K/mol]
[1], 283.15 K, 101.33 kPa	3.36e-06	–
[1], 293.15 K, 101.33 kPa	2.69e-06	–
[1], 303.15 K, 101.33 kPa	2.21e-06	–
[1], 313.15 K, 101.33 kPa	1.86e-06	–
[1], 323.15 K, 101.33 kPa	1.59e-06	–
[1], 333.15 K, 101.33 kPa	1.38e-06	–
[1], 343.15 K, 101.33 kPa	1.22e-06	–
[1], 353.15 K, 101.33 kPa	1.08e-06	–
[1], 363.15 K, 101.33 kPa	9.68e-07	–
[1], 373.15 K, 101.33 kPa	8.72e-07	–
[1], 383.15 K, 101.33 kPa	7.95e-07	–
[1], 393.15 K, 101.33 kPa	7.28e-07	–
[1], 403.15 K, 101.33 kPa	6.7e-07	–
[1], 413.15 K, 101.33 kPa	6.21e-07	–
[1], 423.15 K, 101.33 kPa	5.78e-07	–
[2], 312.57 K, 1000 kPa	–	456.53
[2], 322.47 K, 1000 kPa	–	460.9
[2], 332.37 K, 1000 kPa	–	465.49
[2], 342.27 K, 1000 kPa	–	470.51
[2], 352.18 K, 1000 kPa	–	475.75
[2], 362.08 K, 1000 kPa	–	480.33
[2], 371.98 K, 1000 kPa	–	486.88
[2], 381.88 K, 1000 kPa	–	493.65
[2], 391.78 K, 1000 kPa	–	500.42
[2], 401.68 K, 1000 kPa	–	505.44
[2], 411.58 K, 1000 kPa	–	512.21
[2], 421.48 K, 1000 kPa	–	517.89

[1]
Settings	mass density [kg/m3]
283.15 K	891.6
293.15 K	883.2
303.15 K	875
313.15 K	866.8
323.15 K	858.5
333.15 K	850.4
343.15 K	842.1
353.15 K	833.7
363.15 K	824.9
373.15 K	816.5
383.15 K	807.9
393.15 K	799.4
403.15 K	790.8
413.15 K	782.1
423.15 K	773.3

CCCCOCCOCCOCCOCCCC [5,8,11,14-tetraoxaoctadecane]
Settings	kinematic viscosity [m2/s]	molar heat capacity at constant pressure [J/K/mol]
[1], 283.15 K, 101.33 kPa	5.42e-06	–
[1], 293.15 K, 101.33 kPa	4.16e-06	–
[1], 303.15 K, 101.33 kPa	3.3e-06	–
[1], 313.15 K, 101.33 kPa	2.7e-06	–
[1], 323.15 K, 101.33 kPa	2.25e-06	–
[1], 333.15 K, 101.33 kPa	1.92e-06	–
[1], 343.15 K, 101.33 kPa	1.67e-06	–
[1], 353.15 K, 101.33 kPa	1.46e-06	–
[1], 363.15 K, 101.33 kPa	1.3e-06	–
[1], 373.15 K, 101.33 kPa	1.17e-06	–
[1], 383.15 K, 101.33 kPa	1.04e-06	–
[1], 393.15 K, 101.33 kPa	9.49e-07	–
[1], 403.15 K, 101.33 kPa	8.68e-07	–
[1], 413.15 K, 101.33 kPa	7.98e-07	–
[1], 423.15 K, 101.33 kPa	7.37e-07	–
[2], 312.57 K, 1000 kPa	–	544.45
[2], 322.47 K, 1000 kPa	–	547.86
[2], 332.37 K, 1000 kPa	–	553.9
[2], 342.27 K, 1000 kPa	–	559.14
[2], 352.18 K, 1000 kPa	–	564.65
[2], 362.08 K, 1000 kPa	–	571.48
[2], 371.98 K, 1000 kPa	–	578.82
[2], 381.88 K, 1000 kPa	–	584.33
[2], 391.78 K, 1000 kPa	–	589.58
[2], 401.68 K, 1000 kPa	–	597.71
[2], 411.58 K, 1000 kPa	–	603.75
[2], 421.48 K, 1000 kPa	–	612.15

[1]
Settings	mass density [kg/m3]
283.15 K	926.1
293.15 K	917.7
303.15 K	909.4
313.15 K	901.2
323.15 K	893
333.15 K	884.8
343.15 K	876.5
353.15 K	868.2
363.15 K	859.8
373.15 K	851.4
383.15 K	843
393.15 K	834.5
403.15 K	826.1
413.15 K	817.6
423.15 K	809.1

CCOCCOCCOCC [diethylene glycol diethyl ether]
Settings	kinematic viscosity [m2/s]	molar heat capacity at constant pressure [J/K/mol]
[1], 283.15 K, 101.33 kPa	1.84e-06	–
[1], 293.15 K, 101.33 kPa	1.5e-06	–
[1], 303.15 K, 101.33 kPa	1.27e-06	–
[1], 313.15 K, 101.33 kPa	1.09e-06	–
[1], 323.15 K, 101.33 kPa	9.56e-07	–
[1], 333.15 K, 101.33 kPa	8.48e-07	–
[1], 343.15 K, 101.33 kPa	7.6e-07	–
[1], 353.15 K, 101.33 kPa	6.91e-07	–
[1], 363.15 K, 101.33 kPa	6.33e-07	–
[1], 373.15 K, 101.33 kPa	5.77e-07	–
[1], 383.15 K, 101.33 kPa	5.32e-07	–
[1], 393.15 K, 101.33 kPa	4.93e-07	–
[1], 403.15 K, 101.33 kPa	4.59e-07	–
[1], 413.15 K, 101.33 kPa	4.29e-07	–
[1], 423.15 K, 101.33 kPa	4.02e-07	–
[2], 312.57 K, 1000 kPa	–	349.11
[2], 322.47 K, 1000 kPa	–	351.22
[2], 332.37 K, 1000 kPa	–	353.33
[2], 342.27 K, 1000 kPa	–	355.44
[2], 352.18 K, 1000 kPa	–	358.68
[2], 362.08 K, 1000 kPa	–	360.79
[2], 371.98 K, 1000 kPa	–	364.85
[2], 381.88 K, 1000 kPa	–	368.9
[2], 391.78 K, 1000 kPa	–	372.15
[2], 401.68 K, 1000 kPa	–	377.01
[2], 411.58 K, 1000 kPa	–	380.75
[2], 421.48 K, 1000 kPa	–	384.8

[1]
Settings	mass density [kg/m3]
283.15 K	917.4
293.15 K	907.9
303.15 K	898.4
313.15 K	889
323.15 K	879.5
333.15 K	870
343.15 K	860.2
353.15 K	850
363.15 K	840.2
373.15 K	830.3
383.15 K	820.4
393.15 K	810.3
403.15 K	800
413.15 K	789.7
423.15 K	779.2

COCC(C)OCC(C)OC (configuration not stated) [2-methoxy-1-(2-methoxy-1-methylethoxy)propane]
Settings	kinematic viscosity [m2/s]	molar heat capacity at constant pressure [J/K/mol]
[1], 283.15 K, 101.33 kPa	1.41e-06	–
[1], 293.15 K, 101.33 kPa	1.2e-06	–
[1], 303.15 K, 101.33 kPa	1.03e-06	–
[1], 313.15 K, 101.33 kPa	9.03e-07	–
[1], 323.15 K, 101.33 kPa	8.01e-07	–
[1], 333.15 K, 101.33 kPa	7.19e-07	–
[1], 343.15 K, 101.33 kPa	6.5e-07	–
[1], 353.15 K, 101.33 kPa	5.93e-07	–
[1], 363.15 K, 101.33 kPa	5.51e-07	–
[1], 373.15 K, 101.33 kPa	5.06e-07	–
[1], 383.15 K, 101.33 kPa	4.69e-07	–
[1], 393.15 K, 101.33 kPa	4.37e-07	–
[1], 403.15 K, 101.33 kPa	4.07e-07	–
[1], 413.15 K, 101.33 kPa	3.81e-07	–
[1], 423.15 K, 101.33 kPa	3.59e-07	–
[2], 312.57 K, 1000 kPa	–	328.67
[2], 322.47 K, 1000 kPa	–	332.56
[2], 332.37 K, 1000 kPa	–	336.62
[2], 342.27 K, 1000 kPa	–	340.35
[2], 352.18 K, 1000 kPa	–	345.22
[2], 362.08 K, 1000 kPa	–	349.92
[2], 371.98 K, 1000 kPa	–	354.14
[2], 381.88 K, 1000 kPa	–	359.49
[2], 391.78 K, 1000 kPa	–	364.69
[2], 401.68 K, 1000 kPa	–	369.71
[2], 411.58 K, 1000 kPa	–	373.93
[2], 421.48 K, 1000 kPa	–	381.23

[1]
Settings	mass density [kg/m3]
283.15 K	913
293.15 K	903.4
303.15 K	894
313.15 K	884.8
323.15 K	875.4
333.15 K	866
343.15 K	856.5
353.15 K	846.9
363.15 K	837
373.15 K	827.2
383.15 K	817.2
393.15 K	807.2
403.15 K	797.1
413.15 K	786.8
423.15 K	776.3

CCOCCOCC [1,2-diethoxyethane]
Settings	kinematic viscosity [m2/s]	molar heat capacity at constant pressure [J/K/mol]
[1], 283.15 K, 101.3 kPa	9.5e-07	–
[1], 293.15 K, 101.3 kPa	8.22e-07	–
[1], 303.15 K, 101.3 kPa	7.28e-07	–
[1], 313.15 K, 101.3 kPa	6.48e-07	–
[1], 323.15 K, 101.3 kPa	5.84e-07	–
[1], 333.15 K, 101.3 kPa	5.32e-07	–
[1], 343.15 K, 101.3 kPa	4.87e-07	–
[2], 312.57 K, 1 kPa	–	264.59
[2], 322.47 K, 1 kPa	–	265.54
[2], 332.37 K, 1 kPa	–	268.37
[2], 342.27 K, 1 kPa	–	270.86
[2], 352.18 K, 1 kPa	–	273.57
[2], 362.08 K, 1 kPa	–	276.17
[2], 371.98 K, 1 kPa	–	280.31
[2], 381.88 K, 1 kPa	–	283.03
[2], 391.78 K, 1 kPa	–	286.22
[2], 401.68 K, 1 kPa	–	289.88
[2], 411.58 K, 1 kPa	–	293.43
[2], 421.48 K, 1 kPa	–	296.97

[1]
Settings	mass density [kg/m3]
283.15 K	862.9
293.15 K	852.8
303.15 K	842.6
313.15 K	832.3
323.15 K	822
333.15 K	811.6
343.15 K	801.1
353.15 K	790.5
363.15 K	779.6
373.15 K	768.6
383.15 K	757.2
393.15 K	745.8
403.15 K	734
413.15 K	721.8
423.15 K	709.4
